Measured values published in patent publication US8980226B2, “Aerosolized fosfomycin/aminoglycoside combination for the treatment of bacterial respiratory infections” (Gilead Sciences, Inc., priority 2004, dated 2015).
≈ marks a conversion by molar mass, not a printed value. Like-named read-outs stand apart in the source and are kept apart here.

What was measured:
[1] = system: susceptible P. aeruginosa; conditions: typical values, literature; cited from earlier work
P. aeruginosa = format: cell-based; conditions: for Frequency of Resistance: plates with 128 μg/mL fosfomycin, 8 μg/mL tobramycin, or both
Procedure: The frequency of single-step spontaneous resistance mutation was determined for 5 susceptible P. aeruginosa strains. The bacterial inoculum was prepared by inoculating 5 mL of CAMHB with 2-3 bacterial colonies and incubating at 35° C. in a shaking water bath (250 rpm) for 18 h. A 1:20 dilution of the overnight culture was made into 50 mL of fresh CAMHB in a 125 ml erlenmyer flask and incubated at 35° C. in a shaking waterbath (250 rpm) for 8 hours. Cultures were centrifuged at 2,500 rpm, room temperature, for 20 min. The supernatant was decanted off and the cell pellet from the 50 mL of culture resuspended in 500 μl-1000 μl CAMHB. The CFU/mL in the bacterial suspension was determined by making 10-fold serial dilutions in sterile normal saline, and spreading 100 μl aliquots on blood agar plates. Culture plates were incubated at 35° C. for 18-24 hours and the number of colonies enumerated manually. One hundred microliters of bacterial cell suspension (approximately 10^9 CFU) was spread onto MHA plates containing 128 μg/mL of fosfomycin, 8 μg/mL of tobramycin, or 128 μg/mL of fosfomycin plus 8 μg/mL of tobramycin. The culture plates were incubated at 35° C. for 48-72 hours and the number of colonies on each plate was enumerated manually. The frequency of resistance was calculated by dividing the number of bacteria growing at the defined antibiotic concentration by the number of bacteria in the original inoculum. Representative mutants were evaluated for changes in MIC to fosfomycin alone, tobramycin alone, and fosfomycin plus tobramycin combinations as described in Example 5, Method A.

[2] = in vivo; cited from earlier work
P. aeruginosa ATCC 27853 = test: MIC for P. aeruginosa ATCC 27853; format: cell-based; conditions: Pseudomonas aeruginosa, ATCC27853
Procedure: E. coli ATCC 25922 and S. aureus ATCC 29213 were used as quality control stains. Bacterial strains were streaked onto blood agar plates, and incubated at 35° C. for 18 hours. Two to three bacterial colonies from the overnight cultures were inoculated into 3 mL of sterile normal saline, vortexed briefly, and adjusted to a 0.5 McFarland standard (NCCLS, 2003). The bacterial suspension was diluted 1:100 in cation-adjusted Mueller-Hinton broth (hereafter referred to as CAMHB). […] The MIC was defined as the lowest concentration of antibiotic (s) that prevented visible growth after incubation at 35° C. for 18-24 hours. […] Two to three bacterial colonies were inoculated into 10 mL CAMHB and incubated at 35° C. in a shaking water bath (250 rpm) for 18-24 hours. […] The resulting culture was adjusted to a 0.5 McFarland standard (NCCLS, 2003). […] Ten milliliter aliquots were then pipeted into 50 mL conical tubes. […] The killing activity of fosfomycin plus amikacin, arbekacin, dibikacin, gentamicin, kanamycin, […], neomycin, streptomycin, or tobramycin were also compared to the killing activity of their individual components alone. […] A no drug control was run in each experiment. Cultures were incubated with antibiotic at 35° C. in a shaking (250 rpm) water bath for 24 hours. […] Culture plates were incubated at 35° C. for 18-24 hours and the number of colonies enumerated manually. […]

[3] = system: E. coli, Proteus spp., Salmonella spp., Shigella spp., and S. marcescens; conditions: Forsgren and Walder, 1983; cited from earlier work
[4] = in vivo; cited from earlier work; remark: listed apart in the source
[5] = mutants of P. aeruginosa ATCC 27853
[6] = mutants of P. aeruginosa COR-002
[7] = mutants of P. aeruginosa COR-003
[8] = mutants of P. aeruginosa COR-013
[9] = mutants of P. aeruginosa COR-014

## NC[C@H]1O[C@H](O[C@H]2[C@H](O)[C@@H](O[C@H]3O[C@H](CO)[C@@H](O)[C@H](N)[C@H]3O)[C@H](N)C[C@@H]2N)[C@H](N)C[C@@H]1O [Tobramycin]
[1]
  MICs of susceptible P. aeruginosa: less than 2 μg/mL
P. aeruginosa; P. aeruginosa ATCC 27853
  Frequency of Resistance: 3.4 × 10^−6
P. aeruginosa; P. aeruginosa COR-002
  Frequency of Resistance: 6.7 × 10^−6
P. aeruginosa; P. aeruginosa COR-003
  Frequency of Resistance: 3.2 × 10^−6
P. aeruginosa; P. aeruginosa COR-013
  Frequency of Resistance: 2.6 × 10^−6
P. aeruginosa; P. aeruginosa COR-014
  Frequency of Resistance: 5.0 × 10^−6
P. aeruginosa; [5]
  Fold Increase in MIC after a single exposure to antibiotic: 1
P. aeruginosa; [6]
  Fold Increase in MIC after a single exposure to antibiotic: 1
P. aeruginosa; [7]
  Fold Increase in MIC after a single exposure to antibiotic: 2
P. aeruginosa; [8]
  Fold Increase in MIC after a single exposure to antibiotic: 8
P. aeruginosa; [9]
  Fold Increase in MIC after a single exposure to antibiotic: 16
P. aeruginosa; range over the P. aeruginosa mutants
  increase in MIC of mutants after a single exposure: 2-16 fold
[2]
  prevalence of nephrotoxicity: 31-42%

## C[C@@H]1O[C@@H]1P(=O)(O)O [Fosfomycin]
P. aeruginosa ATCC 27853
  MIC: 4 mg/L (≈ 29 µM)
[3]
  fosfomycin concentrations at which the species are generally inhibited: ≤ 64 µg/mL
P. aeruginosa; P. aeruginosa ATCC 27853
  Frequency of Resistance: 4.1 × 10^−5
P. aeruginosa; P. aeruginosa COR-002
  Frequency of Resistance: 1.4 × 10^−3
P. aeruginosa; P. aeruginosa COR-003
  Frequency of Resistance: 5.5 × 10^−4
P. aeruginosa; P. aeruginosa COR-013
  Frequency of Resistance: 6.4 × 10^−3
P. aeruginosa; P. aeruginosa COR-014
  Frequency of Resistance: 1.5 × 10^−5
P. aeruginosa; [5]
  Fold Increase in MIC after a single exposure to antibiotic: 128
P. aeruginosa; [6]
  Fold Increase in MIC after a single exposure to antibiotic: >256
P. aeruginosa; [7]
  Fold Increase in MIC after a single exposure to antibiotic: >256
P. aeruginosa; [8]
  Fold Increase in MIC after a single exposure to antibiotic: >64
P. aeruginosa; [9]
  Fold Increase in MIC after a single exposure to antibiotic: >512
[4]
  concentrations in normal lung: 1 to 13 µg/mL
  peak serum concentrations: 25 to 95 µg/mL
  time of peak serum concentrations: 1 to 2 h
